Measured values published in patent US10226530B2, “Methods for treating and/or limiting development of diabetes” (Biocrine AB, priority 2011, dated 2019).
Entries after “also recorded” stand apart in the source; their conditions may differ.

How the values were obtained:
β cell CaV channels [1] = experiment: perforated whole-cell patch-clamp of Ca2+ currents in RINm5F cells; format: cell-based, rat
Method: (§1) Islets of Langerhans were isolated from adult male and female mice and dispersed into single ([…]. RINm5F cells at about 70% confluency were trypsinized. The resultant suspension of cells was seeded into Petri dishes or 12-well plates. The cells were cultivated in RPMI 1640 medium supplemented with 10% fetal bovine serum, 2 mM L-glutamine, and 100 U/100 […] penicillin/streptomycin (Invitrogen, Carlsbad, Calif.) and maintained at 37° C. in a humidified 5% CO2 incubator. They were grown overnight and then subjected to siRNA transfection. For patch-clamp analysis, cells underwent overnight treatment with ApoCIII, the PKA inhibitor H-89 (Calbiochem, La Jolla, Calif.), the PKC inhibitor calphostin C (Calbiochem), the Src kinase inhibitor PP2 (Calbiochem) and the CaV1 channel blocker nimodipine (Calbiochem) in RPMI medium at final concentrations of 20 μg/ml, 0.5 μM, 0.1 μM, 0.1 μM and 5 μM, respectively. ApoCIII was dissolved in 0.1% triflouroacetic acid (TFA) to make a stock solution of 1 mg/ml, whereas H-89, calphostin C, PP2 and nimodipine were dissolved in dimethyl sulfoxide (DMSO) to form stock solutions of 5 mM, 1 mM, 1 mM and 10 mM, respectively. 0.002% TFA and/or 0.03% DMSO were used as vehicle controls.
Two pairs of 21-mer siRNA duplexes targeting the rat β1 integrin (β1 integrin siRNA #1, ID127971 and β1 integrin siRNA #2, ID127972) were designed and chemically synthesized by Applied Biosystems/Ambion (Austin, Tex.). Their sequences were subjected to BLAST search to ensure their specificity. Silencer® Select Negative Control siRNA (4390843), not targeting any gene product, and Silencer® Select GAPDH Positive Control siRNA (4390849), efficiently silencing GAPDH in human, mouse, and rat cells, were purchased from Applied Biosystems/Ambion (Austin, Tex.). RINm5F cells were reversely transfected with Lipofectamine™ RNAiMAX™. Briefly, negative control siRNA, β1 integrin siRNA #1 or β1 integrin siRNA #2 was mixed with Lipofectamine™ RNAiMAX™ followed by 20-min incubation at room temperature. Subsequently, cells were added to the siRNA/Lipofectamine™ RNAiMAX mixtures followed by gentle agitation and kept at 37° C. in a humidified 5% CO2 incubator. After 72 h, the transfected cells were grown to about 70% confluency and subjected to immunoblot assay or different treatments.
(§2) Mouse islet cells and RINm5F cells following different treatments were subjected to single channel and whole-cell patch-clamp measurements. Cell-attached and perforated whole-cell patch-clamp configurations were employed. Electrodes were made from borosilicate glass capillaries, fire-polished and coated with Sylgard close to their tips. Some of them were filled with a solution containing (in mM) 110 BaCl2, 10 TEA-Cl, and 5 HEPES (pH 7.4 with Ba(OH)2) for single channel measurements. Others were filled with a solution composed of (in mM) 76 Cs2SO4, 1 MgCl2, 10 KCl, 10 NaCl, and 5 HEPES (pH 7.35 with CsOH), as well as amphotericin B (0.24 mg/ml) for whole-cell current recordings. Electrode resistance ranged between 4 and 6 MΩ when they were filled with electrode solutions and immersed in bath solutions. The electrode offset potential was corrected in bath solutions prior to gigaseal formation. Single-channel recordings were performed with cells bathed in a depolarizing external recording solution, containing (in mM) 125 KCl, 30 KOH, 10 EGTA, 2 CaCl2, 1 MgCl2, and 5 HEPES-KOH (pH 7.15). This solution was used to bring the intracellular potential to 0 mV. For perforated whole-cell current measurements, the cells were bathed in a solution containing (in mM) 138 NaCl, 5.6 KCl, 1.2 MgCl2, 10 CaCl2, 5 HEPES (pH 7.4). Single channel and whole-cell currents were recorded with an Axopatch 200B amplifier (Molecular Devices, Foster City, Calif.) and an EPC-9 patch clamp amplifier (HEKA Elektronik, Lambrecht/Pfalz, Germany), respectively, at room temperature (about 22° C.). […]

CaV1 channels [2] = experiment: cell-attached single channel patch-clamp of unitary CaV1 channel currents in mouse islet β cells; format: cell-based
Method: as §1
as §2, with “For perforated whole-cell current measurements, the cells were bathed in a solution containing (in mM) 138 NaCl, 5.6 KCl, 1.2 MgCl2, 10 CaCl2, 5 HEPES (pH 7.4).” left out

CaV1 channels [3] = experiment: cell-attached single channel patch-clamp of unitary CaV1 channel currents in RINm5F cells; format: cell-based, rat; conditions: ApoCIII 20 μg/ml overnight versus vehicle solution
Method: as §1
as §2, with “For perforated whole-cell current measurements, the cells were bathed in a solution containing (in mM) 138 NaCl, 5.6 KCl, 1.2 MgCl2, 10 CaCl2, 5 HEPES (pH 7.4).” left out

CaV1.3 = experiment: immunoblot of CaV1.3 subunit in RINm5F cell homogenates; format: cell-based, rat; conditions: overnight ApoCIII; P>0.05
Method: as §1, with “ApoCIII was dissolved in 0.1% triflouroacetic acid (TFA) to make a stock solution of 1 mg/ml, whereas H-89, calphostin C, PP2 and nimodipine were dissolved in dimethyl sulfoxide (DMSO) to form stock solutions of 5 mM, 1 mM, 1 mM and 10 mM, respectively. 0.002% TFA and/or 0.03% DMSO were used as vehicle controls.” left out
(§3) RINm5F cells following different treatments were lysed in a lysis buffer (pH 7.5) consisting of 50 mM HEPES, 150 mM NaCl, 1 mM EGTA, 1 mM EDTA, 10% glycerol, 1% triton X-100, 1 mM PMSF and a protease inhibitor cocktail (Roche Diagnostics, Mannheim, Germany). […] The protein concentration of the resulting samples was determined with Bio-Rad protein assay reagent (Bio-Rad, Hercules, Calif.). […]

β cell CaV channels [4] = conditions: mouse islet β cell; Juntti-Berggren et al., 2004; cited from earlier work
CaV1.2 = experiment: immunoblot of CaV1.2 subunit in RINm5F cell homogenates; format: cell-based, rat; conditions: overnight ApoCIII; P>0.05
Method: as §1, with “ApoCIII was dissolved in 0.1% triflouroacetic acid (TFA) to make a stock solution of 1 mg/ml, whereas H-89, calphostin C, PP2 and nimodipine were dissolved in dimethyl sulfoxide (DMSO) to form stock solutions of 5 mM, 1 mM, 1 mM and 10 mM, respectively. 0.002% TFA and/or 0.03% DMSO were used as vehicle controls.” left out
as §3

[5] = H-89 0.5 μM, ApoCIII 20 μg/ml, overnight
[6] = ApoCIII 20 μg/ml overnight versus control vehicle

O=S(=O)(NCCNC/C=C/c1ccc(Br)cc1)c1cccc2cnccc12 [H-89]
Ca2+ current density, cotreatment of ApoCIII and H-89 versus cells treated with ApoCIII (β cell CaV channels [1]; [5]): did not significantly differ | Ca2+ current density, cotreatment of ApoCIII and H-89 versus control cells (β cell CaV channels [1]; [5]): did not significantly differ | Ca2+ current densities under basal conditions, H-89 versus control (β cell CaV channels [1]; H-89 0.5 μM, absence of ApoCIII): did not significantly influence

CC(C)(C)n1nc(-c2ccc(Cl)cc2)c2c(N)ncnc21 [PP2]
difference in Ca2+ current density to vehicle: ApoCIII/PP2-cotreated cells compared with that of ApoCIII-treated cells (β cell CaV channels [1]; PP2 0.1 μM): less prominent | Ca2+ current densities, cells incubated with PP2 versus vehicle-treated cells (β cell CaV channels [1]; PP2 0.1 μM, absence of ApoCIII): similar | Ca2+ currents, cotreatment of ApoCIII and PP2 versus vehicle control cells (β cell CaV channels [1]; voltage range 20-40 mV, PP2 0.1 μM): significantly larger

apolipoprotein CIII [ApoCIII]
mean closed time of unitary CaV1 channels (CaV1 channels [2]; ApoCIII 20 μg/ml overnight versus control patches): significantly shorter | mean open time of unitary CaV1 channels (CaV1 channels [2]; [6]): significantly greater | open probability of unitary CaV1 channels (CaV1 channels [2]; [6]): significantly greater | average number of unitary CaV1 channels (CaV1 channels [2]; ApoCIII 20 μg/ml overnight versus control vehicle, plasma membrane patches): significantly greater | channel number of CaV1 channels (CaV1 channels [3]): significantly increased | mean closed time of CaV1 channels (CaV1 channels [3]): shortened | mean open time of CaV1 channels (CaV1 channels [3]): prolonged | open probability of CaV1 channels (CaV1 channels [3]): elevated | relative abundance of CaV1.3 subunits, ApoCIII incubation versus vehicle incubation (CaV1.3): no significant difference | density of whole-cell Ca2+ currents, ApoCIII group versus control group (β cell CaV channels [1]; no voltage range printed, H-89/PP2 experiment): Significantly higher | Ca2+ current density, NC siRNA/apoCIII versus NC siRNA/Control (β cell CaV channels [1]; voltage range 10-40 mV, negative control siRNA-transfected cells): significant increase | whole-cell Ca2+ current density, ApoCIII-treated cells versus vehicle control cells (β cell CaV channels [1]; voltage range 10 to 50 mV, ApoCIII 20 μg/ml overnight): significantly higher; also recorded: increased significantly; also recorded: significantly elevated; also recorded: significantly increased | whole-cell Ca2+ current density, ApoCIII group versus control group (β cell CaV channels [1]; voltage range from 10 to 30 mV, ApoCIII 20 μg/ml overnight): significantly higher | whole-cell Ca2+ currents after ApoCIII incubation (β cell CaV channels [4]): significantly enhances | relative abundance of CaV1.2 subunits, ApoCIII incubation versus vehicle incubation (CaV1.2): no significant difference

calphostin C [CalpC]
Ca2+ current density, ApoCIII/CalpC-cotreated cells versus ApoCIII-treated cells (β cell CaV channels [1]; calphostin C 0.1 μM): no difference | Ca2+ current density, CalpC-treated cells versus control vehicle (β cell CaV channels [1]; calphostin C 0.1 μM, absence of ApoCIII): similar | mean Ca2+ current density, ApoCIII/CalpC versus vehicle control cells (β cell CaV channels [1]; voltage range from 20 to 50 mV, calphostin C 0.1 μM): increased significantly
